Measured values: US9376425B2, “Heterocyclic compounds as MDM2 inhibitors for the treatment of cancer” (AMGEN INC., priority 2011, dated 2016)

Target: T1, human MDM2 (GST-hMDM2 aa 1-188), interaction with biotinylated-p53 (aa 1-83) (Homo sapiens, UniProt Q00987)
T1 construct: Amino acid residues 1-188 of human MDM2 were expressed; made in house; host or cells: Escherichia coli
Experiment: Homogenous Time-Resolved Fluorescence Assay (HTRF1 assay), inhibition of HDM2-p53 interaction
Type: binding
Settings: 2.5 nM GST-hMDM2, 5 nM biotinylated-p53, 200 mM KF
Procedure: Homogenous Time-Resolved Fluorescence Assay (HTRF1 Assay)
Residues 1-83 of human p53 were expressed as an amino-terminal AviTag™-TrxA-6xHis fusion protein (biotinylated p53) in E. coli. Each protein was purified from cell paste by affinity chromatography.
Specifically, 10 uL of GST-hMDM2 was incubated with 10 ul of diluted compound (various concentrations, serially diluted) in 10% DMSO for 20 minutes at room temperature. 20 uL of biotinylated-p53 was added to the GST-hMDM2+ compound mixture, and then incubated at room temperature for 60 min. 10 uL of detection buffer consisting of SA-XLent, anti-GST cryptate antibody and KF was added to GST-hMDM2, biotinylated-p53 and compound reaction and left at room temperature to reach equilibrium for >4 hrs. The final concentration of DMSO in the reaction was 2%. Time-resolved fluorescence readings were measured on a microplate multilabel reader. Percentage of inhibition was calculated relative to nutlin-3.

T1 sequence (Q00987 1-188): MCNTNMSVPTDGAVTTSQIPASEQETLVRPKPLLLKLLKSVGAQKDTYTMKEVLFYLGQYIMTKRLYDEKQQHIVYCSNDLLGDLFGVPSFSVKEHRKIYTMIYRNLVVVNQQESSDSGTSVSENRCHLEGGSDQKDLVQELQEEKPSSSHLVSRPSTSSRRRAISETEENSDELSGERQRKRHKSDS

Compound | IC50
Cn1c([C@@H]2[C@@H](c3cccc(Cl)c3)O[C@H](CC(=O)O)C(=O)N2CC2CC2)nc2ccccc21.Cn1c([C@H]2[C@H](c3cccc(Cl)c3)O[C@@H](CC(=O)O)C(=O)N2CC2CC2)nc2ccccc21 (mixture of isomers) [Example 6, 2-((2R,5R,6R)-6-(3-Chlorophenyl)-4-(cyclopropylmethyl)-5-(1-methyl-1H-benzo[d]imidazol-2-yl)-3-oxomorpholin-2-yl)acetic acid and 2-((2S,5S,6S)-6-(3-Chlorophenyl)-4-(cyclopropylmethyl)-5-(1-methyl-1H-benzo[d]imidazol-2-yl)-3-oxomorpholin-2-yl)acetic acid] | 46700 nM
O=C1[C@@H](Cc2nnn[nH]2)O[C@H](c2cccc(Cl)c2)[C@@H](c2ccc(Cl)cc2)N1CC1CC1.O=C1[C@H](Cc2nnn[nH]2)O[C@H](c2cccc(Cl)c2)[C@@H](c2ccc(Cl)cc2)N1CC1CC1 (mixture of isomers) [Example 50, (2S,5R,6R)-6-(3-Chlorophenyl)-5-(4-chlorophenyl)-4-(cyclopropylmethyl)-2-((tetrazol-5-yl)methyl)morpholin-3-one and (2R,5R,6R)-6-(3-Chlorophenyl)-5-(4-chlorophenyl)-4-(cyclopropylmethyl)-2-((tetrazol-5-yl)methyl)morpholin-3-one] | 700 nM

Target: T2, human MDM2 (GST-hMDM2 1-188), interaction with biotinylated-p53 (1-83) (Homo sapiens, UniProt Q00987)
T2 construct: Amino acid residues 1-188 of human MDM2 were expressed; made in house; host or cells: Escherichia coli
Experiment: improved HTRF assay (HTRF2 assay), inhibition of HDM2-p53 interaction
Type: binding
Settings: 0.2 nM GST-hMDM2, 0.5 nM biotinylated-p53, 100 mM KF
Outline: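 Time-resolved fluorescence (HTRF) read after >4 h equilibration with SA-XLent/anti-GST cryptate/KF detection reagents. Reaction: compound plus GST-hMDM2 for 20 min at room temperature, then E. coli-expressed biotinylated p53 residues 1-83 for 60 min, 2% DMSO final. Inhibition expressed versus nutlin-3.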

T2 sequence (Q00987 1-188): as above

Compound | IC50
C[C@@H](CSC(C)(C)C)N1C(=O)CO[C@H](c2cccc(Cl)c2)[C@H]1c1ccc(Cl)cc1 [Example 222, (5R,6R)-4-((S)-1-(tert-butylthio)propan-2-yl)-6-(3-chlorophenyl)-5-(4-chlorophenyl)morpholin-3-one] | 170 nM
CC(C)(C)S(=O)(=O)[C@H]1CCCC[C@@H]1N1C(=O)[C@@H](CC(=O)O)O[C@H](c2cccc(Cl)c2)[C@H]1c1ccc(Cl)cc1 [Example 249, 2-((2R,5R,6R)-4-((1S,2S)-2-(tert-butylsulfonyl)cyclohexyl)-6-(3-chlorophenyl)-5-(4-chlorophenyl)-3-oxomorpholin-2-yl)acetic acid] | 4 nM
Cc1ccc([C@H]2O[C@H](CC(=O)O)C(=O)N([C@H](CS(=O)(=O)C(C)(C)C)C3CC3)[C@@H]2c2ccc(Cl)cc2)cc1Cl [Example 327, 2-((2R,5R,6R)-4-((S)-2-(tert-Butylsulfonyl)-1-cyclopropylethyl)-6-(3-chloro-4-methylphenyl)-5-(4-chlorophenyl)-3-oxomorpholin-2-yl)acetic acid] | 51 nM
CC[C@@H](CS(=O)(=O)C(C)(C)C)N1C(=O)[C@@H](CNC(=O)OC(C)(C)C)O[C@H](c2cccc(Cl)c2)[C@H]1c1ccc(Cl)cc1 [Example 377, tert-Butyl (((2R,5R,6R)-4-((S)-1-(tert-utylsulfonyl)butan-2-yl)-6-(3-chlorophenyl)-5-(4-chlorophenyl)-3-oxomorpholin-2-yl)methyl)carbamate and tert-butyl (((2S,5R,6R)-4-((S)-1-(tert-butylsulfonyl)butan-2-yl)-6-(3-chlorophenyl)-5-(4-chlorophenyl)-3-oxomorpholin-2-yl)methyl)carbamate] | 86 nM
(2R,5R,6R)-4-((S)-2-(tert-Butylsulfonyl)-1-cyclopropylethyl)-6-(3-chlorophenyl)-5-(4-chlorophenyl)-2-((3-methyl-1H-1,2,4-triazol-5-yl)methyl)morpholin-3-one and (2S,5R,6R)-4-((S)-2-(tert-butylsulfonyl)-1-cyclopropylethyl)-6-(3-chlorophenyl)-5-(4-chlorophenyl)-2-((3-methyl-1H-1,2,4-triazol-5-yl)methyl)morpholin-3-one [Example 391] | 4 nM
Methyl 2-((2R,5R,6R)-6-(3-chlorophenyl)-5-(4-chlorophenyl)-4-((S)-1-((2-(dimethylamino)ethyl)sulfonyl)butan-2-yl)-3-oxomorpholin-2-yl)acetate and methyl 2-((2S,5R,6R)-6-(3-chlorophenyl)-5-(4-chlorophenyl)-4-((S)-1-((2-(dimethylamino)ethyl)sulfonyl)butan-2-yl)-3-oxomorpholin-2-yl)acetate [Example 246] | 6 nM

The remaining lines, values ahead:

IC50 | Compound
59 nM | CC[C@@H](CS(=O)(=O)C(C)(C)C)N1C(=O)[C@@H](CCOC)O[C@H](c2cccc(Cl)c2)[C@H]1c1ccc(Cl)cc1 [Example 153, (2R,5R,6R)-4-((S)-1-(tert-butylsulfonyl)butan-2-yl)-6-(3-chlorophenyl)-5-(4-chlorophenyl)-2-(2-methoxyethyl)morpholin-3-one]
< 1 nM | CC[C@@H](CS(=O)(=O)C(C)(C)C)N1C(=O)[C@H](CC(=O)NC#N)O[C@H](c2cccc(Cl)c2)[C@H]1c1ccc(Cl)cc1 [Example 344, 2-((2S,5R,6R)-4-((S)-1-(tert-Butylsulfonyl)butan-2-yl)-6-(3-chlorophenyl)-5-(4-chlorophenyl)-3-oxomorpholin-2-yl)-N-cyanoacetamide]
< 1 nM | CC[C@@H](CS(=O)(=O)C(C)(C)C)N1C(=O)[C@@H](CC(=O)NC#N)O[C@H](c2cccc(Cl)c2)[C@H]1c1ccc(Cl)cc1 [Example 345, 2-((2R,5R,6R)-4-((S)-1-(tert-Butylsulfonyl)butan-2-yl)-6-(3-chlorophenyl)-5-(4-chlorophenyl)-3-oxomorpholin-2-yl)-N-cyanoacetamide]
66 nM | CC[C@@H](CS(=O)(=O)C(C)(C)C)N1C(=O)[C@@H](CC#N)O[C@H](c2cccc(Cl)c2)[C@H]1c1ccc(Cl)cc1 [Example 381, 2-((2R,5R,6R)-4-((S)-1-(tert-Butylsulfonyl)butan-2-yl)-6-(3-chlorophenyl)-5-(4-chlorophenyl)-3-oxomorpholin-2-yl)acetonitrile]
< 1 nM | CC[C@@H](CS(=O)(=O)C(C)(C)C)N1C(=O)[C@@H](Cc2nnn[nH]2)O[C@H](c2cccc(Cl)c2)[C@H]1c1ccc(Cl)cc1 [Example 382, (2R,5R,6R)-2-((1H-Tetrazol-5-yl)methyl)-4-((S)-1-(tert-butylsulfonyl)butan-2-yl)-6-(3-chlorophenyl)-5-(4-chlorophenyl)morpholin-3-one]
< 1 nM | CC[C@@H](CS(=O)(=O)C(C)(C)C)N1C(=O)[C@H](Cc2nnn[nH]2)O[C@H](c2cccc(Cl)c2)[C@H]1c1ccc(Cl)cc1 [Example 383, (2S,5R,6R)-2-((1H-Tetrazol-5-yl)methyl)-4-((S)-1-(tert-butylsulfonyl)butan-2-yl)-6-(3-chlorophenyl)-5-(4-chlorophenyl)morpholin-3-one]
13 nM | CC(C)(C)S(=O)(=O)C[C@H](C1CC1)N1C(=O)[C@H](Cc2ccno2)O[C@H](c2cccc(Cl)c2)[C@H]1c1ccc(Cl)cc1 [Example 384, (2S,5R,6R)-4-((S)-2-(tert-Butylsulfonyl)-1-cyclopropylethyl)-6-(3-chlorophenyl)-5-(4-chlorophenyl)-2-(isoxazol-5-ylmethyl)morpholin-3-one]
29 nM | Cn1ccnc1C[C@H]1O[C@H](c2cccc(Cl)c2)[C@@H](c2ccc(Cl)cc2)N([C@H](CS(=O)(=O)C(C)(C)C)C2CC2)C1=O [Example 402, (2R,5R,6R)-4-((S)-2-(tert-Butylsulfonyl)-1-cyclopropylethyl)-6-(3-chlorophenyl)-5-(4-chlorophenyl)-2-((1-methyl-1H-imidazol-2-yl)methyl)morpholin-3-one]
